From the NIST ThermoML archive (doi:10.1021/je800017j)

Assay: xn = mol fraction of the nth substance listed
Conditions: Liquid, Vibrating tube method

C=CC [propene] + CC(C)O
Conditions	mass density [kg/m3]
300.11 K, 966.7 kPa, x1 = 0.5201	644.49
300.11 K, 1373.3 kPa, x1 = 0.5201	645.21
300.11 K, 1835.6 kPa, x1 = 0.5201	645.98
300.11 K, 2340.9 kPa, x1 = 0.5201	646.83
300.11 K, 2812.4 kPa, x1 = 0.5201	647.62
300.11 K, 3330.1 kPa, x1 = 0.5201	648.49
300.11 K, 3817.5 kPa, x1 = 0.5201	649.27
300.11 K, 4386.1 kPa, x1 = 0.5201	650.18
300.11 K, 4873.7 kPa, x1 = 0.5201	650.95
300.11 K, 5375.2 kPa, x1 = 0.5201	651.72
300.11 K, 5888.8 kPa, x1 = 0.5201	652.52
300.11 K, 6442 kPa, x1 = 0.5201	653.35
300.11 K, 6942.8 kPa, x1 = 0.5201	654.09
300.11 K, 7498.2 kPa, x1 = 0.5201	654.9
300.11 K, 8104.7 kPa, x1 = 0.5201	655.77
300.11 K, 8671.8 kPa, x1 = 0.5201	656.58
300.11 K, 9226.7 kPa, x1 = 0.5201	657.35
300.11 K, 9787 kPa, x1 = 0.5201	658.16
300.12 K, 1068.5 kPa, x1 = 0.6478	608.06
300.12 K, 1486.5 kPa, x1 = 0.6478	608.93
300.12 K, 1740.6 kPa, x1 = 0.6478	609.48
300.12 K, 2123.8 kPa, x1 = 0.6478	610.19
300.12 K, 2620 kPa, x1 = 0.6478	611.17
300.12 K, 2986.8 kPa, x1 = 0.6478	611.92
300.12 K, 3495.3 kPa, x1 = 0.6478	612.85
300.12 K, 3829 kPa, x1 = 0.6478	613.59
300.12 K, 4193.5 kPa, x1 = 0.6478	614.26
300.12 K, 4542.8 kPa, x1 = 0.6478	614.93
300.12 K, 4905.4 kPa, x1 = 0.6478	615.61
300.12 K, 5263.7 kPa, x1 = 0.6478	616.27
300.12 K, 5634.1 kPa, x1 = 0.6478	616.94
300.12 K, 6011.3 kPa, x1 = 0.6478	617.61
300.12 K, 6395.3 kPa, x1 = 0.6478	618.28
300.12 K, 6788.6 kPa, x1 = 0.6478	618.96
300.12 K, 7165.4 kPa, x1 = 0.6478	619.61
300.12 K, 7558.1 kPa, x1 = 0.6478	620.28
300.12 K, 7960.1 kPa, x1 = 0.6478	620.96
300.12 K, 8377.2 kPa, x1 = 0.6478	621.66
300.12 K, 8785.5 kPa, x1 = 0.6478	622.34
300.12 K, 9234.2 kPa, x1 = 0.6478	623.05
300.12 K, 9682.1 kPa, x1 = 0.6478	623.79
300.14 K, 529.4 kPa, x1 = 0.2011	731.63
300.14 K, 1051.3 kPa, x1 = 0.2011	732.17
300.14 K, 1483.6 kPa, x1 = 0.2011	732.72
300.14 K, 1954.4 kPa, x1 = 0.2011	733.24
300.14 K, 2384 kPa, x1 = 0.2011	733.72
300.14 K, 2798.6 kPa, x1 = 0.2011	734.18
300.14 K, 3273.1 kPa, x1 = 0.2011	734.68
300.14 K, 3740.2 kPa, x1 = 0.2011	735.18
300.14 K, 4186.3 kPa, x1 = 0.2011	735.68
300.14 K, 4728.6 kPa, x1 = 0.2011	736.23
300.14 K, 5235.6 kPa, x1 = 0.2011	736.78
300.14 K, 5767.3 kPa, x1 = 0.2011	737.3
300.14 K, 6274.7 kPa, x1 = 0.2011	737.83
300.14 K, 6832.5 kPa, x1 = 0.2011	738.41
300.14 K, 7291.5 kPa, x1 = 0.2011	738.89
300.14 K, 7811.8 kPa, x1 = 0.2011	739.42
300.14 K, 8296.6 kPa, x1 = 0.2011	739.9
300.14 K, 8810.3 kPa, x1 = 0.2011	740.41
300.14 K, 9337.7 kPa, x1 = 0.2011	740.91
300.14 K, 9886.4 kPa, x1 = 0.2011	741.45
325.05 K, 1613.1 kPa, x1 = 0.5201	613.41
325.05 K, 1977.7 kPa, x1 = 0.5201	614.26
325.05 K, 2359 kPa, x1 = 0.5201	615.15
325.05 K, 2717.2 kPa, x1 = 0.5201	615.98
325.05 K, 3167.8 kPa, x1 = 0.5201	616.93
325.05 K, 3506.1 kPa, x1 = 0.5201	617.74
325.05 K, 3888.8 kPa, x1 = 0.5201	618.59
325.05 K, 4321.6 kPa, x1 = 0.5201	619.52
325.05 K, 4676.7 kPa, x1 = 0.5201	620.29
325.05 K, 5061.4 kPa, x1 = 0.5201	621.12
325.05 K, 5471.8 kPa, x1 = 0.5201	621.94
325.05 K, 5880.1 kPa, x1 = 0.5201	622.78
325.05 K, 6293.6 kPa, x1 = 0.5201	623.65
325.05 K, 6704.3 kPa, x1 = 0.5201	624.42
325.05 K, 7171.7 kPa, x1 = 0.5201	625.34
325.05 K, 7597.4 kPa, x1 = 0.5201	626.18
325.05 K, 8037.5 kPa, x1 = 0.5201	627.02
325.05 K, 8556.5 kPa, x1 = 0.5201	628.02
325.05 K, 9078.1 kPa, x1 = 0.5201	628.97
325.05 K, 9631.3 kPa, x1 = 0.5201	629.98
325.09 K, 810.9 kPa, x1 = 0.2011	703.07
325.09 K, 1218.9 kPa, x1 = 0.2011	703.59
325.09 K, 1608.7 kPa, x1 = 0.2011	704.14
325.09 K, 2001.8 kPa, x1 = 0.2011	704.7
325.09 K, 2383.7 kPa, x1 = 0.2011	705.3
325.09 K, 2827.6 kPa, x1 = 0.2011	705.86
325.09 K, 3159.2 kPa, x1 = 0.2011	706.38
325.09 K, 3707.9 kPa, x1 = 0.2011	707.07
325.09 K, 4123.6 kPa, x1 = 0.2011	707.68
325.09 K, 4528.5 kPa, x1 = 0.2011	708.19
325.09 K, 4925.3 kPa, x1 = 0.2011	708.73

Conditions	mass density [kg/m3]
300.11 K, x1 = 0.5201	644.42
300.12 K, x1 = 0.6478	607.97
300.14 K, x1 = 0.2011	731.63
325.05 K, x1 = 0.5201	613.29
